The target of this test is Fatty acid synthase (FASN) (Homo sapiens, UniProt P49327). The test can be described thus: […]malonyl-CoA incorporation into fatty acids by purified FASN. Format: biochemical.

As usually defined, the IC50 is the concentration needed to halve the response being measured. Read a low IC50 as greater potency.

Fatty acid synthase (FASN), sequence (P49327 whole entry): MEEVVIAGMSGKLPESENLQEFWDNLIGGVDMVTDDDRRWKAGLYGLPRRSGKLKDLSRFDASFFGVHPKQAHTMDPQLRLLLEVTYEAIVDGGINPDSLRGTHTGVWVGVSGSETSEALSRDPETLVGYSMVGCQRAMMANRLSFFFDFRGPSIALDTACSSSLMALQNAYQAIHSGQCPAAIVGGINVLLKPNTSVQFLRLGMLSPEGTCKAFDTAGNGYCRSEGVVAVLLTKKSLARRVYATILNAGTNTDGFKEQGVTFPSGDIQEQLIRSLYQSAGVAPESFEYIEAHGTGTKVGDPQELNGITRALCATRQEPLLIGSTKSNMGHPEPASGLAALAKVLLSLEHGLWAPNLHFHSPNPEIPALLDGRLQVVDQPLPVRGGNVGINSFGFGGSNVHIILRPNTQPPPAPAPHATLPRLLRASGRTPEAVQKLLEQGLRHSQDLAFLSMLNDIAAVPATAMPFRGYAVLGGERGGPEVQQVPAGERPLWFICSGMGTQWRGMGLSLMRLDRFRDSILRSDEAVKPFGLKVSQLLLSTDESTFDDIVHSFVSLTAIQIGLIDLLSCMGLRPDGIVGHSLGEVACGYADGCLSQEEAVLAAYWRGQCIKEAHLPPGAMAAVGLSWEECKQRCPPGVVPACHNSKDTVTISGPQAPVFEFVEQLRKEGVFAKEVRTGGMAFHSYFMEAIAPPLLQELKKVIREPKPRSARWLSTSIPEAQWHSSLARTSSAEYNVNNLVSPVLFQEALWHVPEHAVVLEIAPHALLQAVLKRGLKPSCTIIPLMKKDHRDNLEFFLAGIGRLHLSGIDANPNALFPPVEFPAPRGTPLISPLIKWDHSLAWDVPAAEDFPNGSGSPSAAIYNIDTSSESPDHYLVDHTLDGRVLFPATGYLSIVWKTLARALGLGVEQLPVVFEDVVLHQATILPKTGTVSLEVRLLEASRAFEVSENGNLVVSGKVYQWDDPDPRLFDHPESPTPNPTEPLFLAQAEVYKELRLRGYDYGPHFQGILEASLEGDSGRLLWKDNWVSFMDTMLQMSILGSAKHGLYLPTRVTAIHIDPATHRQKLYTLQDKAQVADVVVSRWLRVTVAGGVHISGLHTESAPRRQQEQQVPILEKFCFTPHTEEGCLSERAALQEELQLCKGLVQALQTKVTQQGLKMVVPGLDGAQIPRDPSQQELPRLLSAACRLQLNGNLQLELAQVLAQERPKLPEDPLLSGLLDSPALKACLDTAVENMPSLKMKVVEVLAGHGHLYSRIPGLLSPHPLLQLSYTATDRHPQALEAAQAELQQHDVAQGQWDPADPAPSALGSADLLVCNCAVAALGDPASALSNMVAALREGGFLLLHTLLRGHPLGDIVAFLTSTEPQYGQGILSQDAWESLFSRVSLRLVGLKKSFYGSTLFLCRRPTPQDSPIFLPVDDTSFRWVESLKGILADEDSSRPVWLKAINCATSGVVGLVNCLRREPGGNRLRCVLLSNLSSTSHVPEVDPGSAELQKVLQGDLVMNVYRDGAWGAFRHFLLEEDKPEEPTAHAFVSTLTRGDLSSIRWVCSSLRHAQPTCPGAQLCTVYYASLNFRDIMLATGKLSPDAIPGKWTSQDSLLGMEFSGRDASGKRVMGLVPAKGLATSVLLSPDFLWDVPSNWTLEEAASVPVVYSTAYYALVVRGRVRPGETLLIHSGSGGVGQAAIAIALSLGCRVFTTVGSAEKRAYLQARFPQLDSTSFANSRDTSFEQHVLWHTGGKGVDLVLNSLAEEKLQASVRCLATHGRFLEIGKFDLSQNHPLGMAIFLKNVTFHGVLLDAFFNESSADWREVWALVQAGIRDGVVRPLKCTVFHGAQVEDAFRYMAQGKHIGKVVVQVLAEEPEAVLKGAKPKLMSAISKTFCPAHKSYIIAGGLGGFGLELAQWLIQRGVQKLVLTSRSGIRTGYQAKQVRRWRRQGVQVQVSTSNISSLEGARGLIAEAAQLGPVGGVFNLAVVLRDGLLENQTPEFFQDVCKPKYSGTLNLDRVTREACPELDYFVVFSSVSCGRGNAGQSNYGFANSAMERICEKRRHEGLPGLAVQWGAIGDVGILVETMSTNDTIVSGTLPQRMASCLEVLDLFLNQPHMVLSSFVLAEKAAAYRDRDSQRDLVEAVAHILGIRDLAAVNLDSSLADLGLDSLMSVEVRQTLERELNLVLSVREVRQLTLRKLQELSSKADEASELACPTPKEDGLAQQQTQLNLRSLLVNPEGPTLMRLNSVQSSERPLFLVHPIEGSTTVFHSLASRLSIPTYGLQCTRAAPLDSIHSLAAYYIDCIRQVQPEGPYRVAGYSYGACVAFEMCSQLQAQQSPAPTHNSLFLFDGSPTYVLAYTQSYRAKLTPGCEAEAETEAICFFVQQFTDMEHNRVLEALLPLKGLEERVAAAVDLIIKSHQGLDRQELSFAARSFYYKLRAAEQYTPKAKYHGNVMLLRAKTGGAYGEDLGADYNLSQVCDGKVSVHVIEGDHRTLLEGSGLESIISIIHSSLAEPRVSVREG

`Cc1sc2ncnc(NC3CCN(Cc4ccccc4)C3)c2c1C` (stereo not shown) [Fasnall] registered an IC50 of 3.71 µM. That is a single-digit micromolar value.

The values are drawn from article PMC6443244 (Cell chemical biology, 2016).
